Entries after “also recorded” stand apart in the source; their conditions may differ.
Key:
[1] = Parallel artificial membrane permeability assay; assay type: in vitro ADME; conditions: PAMPA
SMYD2 = SMYD2 (Homo sapiens, UniProt Q9NRG4); assay: Methyltransferase selectivity assay; assay type: biochemical
Human recombinant PNMT = biological target: T1, Human recombinant PNMT (Homo sapiens, UniProt P11086); assay: PNMT selectivity assay; assay type: biochemical
T1 sequence (P11086 1-282): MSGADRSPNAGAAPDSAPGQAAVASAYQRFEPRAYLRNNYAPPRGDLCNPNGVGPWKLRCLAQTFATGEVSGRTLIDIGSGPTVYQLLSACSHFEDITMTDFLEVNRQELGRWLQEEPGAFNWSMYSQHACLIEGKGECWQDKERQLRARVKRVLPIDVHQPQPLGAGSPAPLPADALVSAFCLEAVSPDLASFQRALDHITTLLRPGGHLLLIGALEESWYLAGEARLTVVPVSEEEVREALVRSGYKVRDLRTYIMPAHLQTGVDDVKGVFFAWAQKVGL

[2] = system: HSC-2 human oral cancer cell line; assay: MTT cell proliferation/viability assay; assay type: cell-based
DOT1L = DOT1L (Homo sapiens, UniProt Q8TEK3); assay: Methyltransferase selectivity assay; assay type: biochemical
DOT1L, sequence (Q8TEK3 whole entry, species assumed): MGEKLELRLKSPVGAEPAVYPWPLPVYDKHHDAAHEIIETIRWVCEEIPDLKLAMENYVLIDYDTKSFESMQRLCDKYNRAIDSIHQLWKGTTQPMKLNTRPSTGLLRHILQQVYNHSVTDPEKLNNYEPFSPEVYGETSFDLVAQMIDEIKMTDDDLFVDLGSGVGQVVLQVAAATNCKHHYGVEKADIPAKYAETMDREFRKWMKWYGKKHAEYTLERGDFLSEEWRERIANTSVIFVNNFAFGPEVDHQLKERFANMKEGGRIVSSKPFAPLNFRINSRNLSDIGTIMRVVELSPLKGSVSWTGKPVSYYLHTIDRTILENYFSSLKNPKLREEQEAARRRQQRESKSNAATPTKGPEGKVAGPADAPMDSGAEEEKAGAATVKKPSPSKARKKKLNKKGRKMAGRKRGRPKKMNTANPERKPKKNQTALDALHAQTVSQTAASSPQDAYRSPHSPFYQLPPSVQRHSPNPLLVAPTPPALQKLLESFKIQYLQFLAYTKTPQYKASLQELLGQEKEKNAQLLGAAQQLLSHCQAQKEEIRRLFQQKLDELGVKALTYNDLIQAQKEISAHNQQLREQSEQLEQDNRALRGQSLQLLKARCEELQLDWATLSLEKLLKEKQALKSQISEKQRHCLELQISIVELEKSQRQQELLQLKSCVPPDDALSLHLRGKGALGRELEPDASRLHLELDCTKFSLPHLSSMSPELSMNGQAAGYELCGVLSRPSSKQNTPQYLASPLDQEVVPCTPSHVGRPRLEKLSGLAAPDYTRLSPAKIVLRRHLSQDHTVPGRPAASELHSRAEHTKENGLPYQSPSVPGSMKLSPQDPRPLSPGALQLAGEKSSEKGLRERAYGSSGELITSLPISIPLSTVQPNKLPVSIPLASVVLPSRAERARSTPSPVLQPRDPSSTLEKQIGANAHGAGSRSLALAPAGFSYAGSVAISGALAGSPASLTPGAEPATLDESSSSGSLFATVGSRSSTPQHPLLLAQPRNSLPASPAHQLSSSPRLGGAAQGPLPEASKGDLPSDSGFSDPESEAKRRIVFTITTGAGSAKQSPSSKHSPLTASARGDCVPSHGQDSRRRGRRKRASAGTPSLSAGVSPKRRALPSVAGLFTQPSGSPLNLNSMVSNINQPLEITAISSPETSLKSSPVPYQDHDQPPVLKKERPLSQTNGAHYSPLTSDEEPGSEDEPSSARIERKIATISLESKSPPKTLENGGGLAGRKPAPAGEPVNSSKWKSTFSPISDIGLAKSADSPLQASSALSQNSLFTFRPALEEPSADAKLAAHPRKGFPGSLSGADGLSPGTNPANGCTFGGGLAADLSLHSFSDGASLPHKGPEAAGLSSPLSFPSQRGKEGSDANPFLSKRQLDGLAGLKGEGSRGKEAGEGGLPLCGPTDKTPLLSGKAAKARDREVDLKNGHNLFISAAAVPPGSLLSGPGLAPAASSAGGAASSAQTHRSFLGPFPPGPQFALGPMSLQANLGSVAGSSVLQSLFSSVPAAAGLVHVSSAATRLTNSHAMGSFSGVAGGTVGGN

[3] = system: T24 human bladder cancer cell line; assay: MTT cell proliferation/viability assay; assay type: cell-based
PRMT4/CARM1 = biological target: T2, PRMT4/CARM1 (Homo sapiens, UniProt Q86X55); assay: PRMT4/CARM1 methyltransferase inhibition assay; assay type: biochemical; conditions: 3.7, 11.1, 33.3, and 100 μM
T2 sequence (Q86X55 1-608): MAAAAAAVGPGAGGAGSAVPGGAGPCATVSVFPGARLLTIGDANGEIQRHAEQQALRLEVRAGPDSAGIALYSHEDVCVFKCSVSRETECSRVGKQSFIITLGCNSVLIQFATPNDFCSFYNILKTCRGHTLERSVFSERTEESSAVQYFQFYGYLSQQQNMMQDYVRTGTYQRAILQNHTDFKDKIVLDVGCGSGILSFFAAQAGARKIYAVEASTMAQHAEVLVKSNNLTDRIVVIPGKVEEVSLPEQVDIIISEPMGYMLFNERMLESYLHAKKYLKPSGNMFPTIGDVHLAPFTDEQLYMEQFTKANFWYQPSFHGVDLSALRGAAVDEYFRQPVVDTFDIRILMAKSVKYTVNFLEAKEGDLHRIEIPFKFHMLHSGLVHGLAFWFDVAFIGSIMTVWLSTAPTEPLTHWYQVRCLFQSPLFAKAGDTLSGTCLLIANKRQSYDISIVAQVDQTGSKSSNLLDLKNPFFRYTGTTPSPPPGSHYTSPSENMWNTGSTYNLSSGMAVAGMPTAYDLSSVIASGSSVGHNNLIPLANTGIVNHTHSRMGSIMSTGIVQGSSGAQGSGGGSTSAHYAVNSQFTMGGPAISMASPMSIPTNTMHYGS

[4] = system: A549 human lung cancer line; assay: MTT cell proliferation/viability assay; assay type: cell-based
PRMT5 = PRMT5 (Homo sapiens, UniProt O14744); assay: Methyltransferase selectivity assay; assay type: biochemical
PRMT5, sequence (O14744 whole entry, species assumed): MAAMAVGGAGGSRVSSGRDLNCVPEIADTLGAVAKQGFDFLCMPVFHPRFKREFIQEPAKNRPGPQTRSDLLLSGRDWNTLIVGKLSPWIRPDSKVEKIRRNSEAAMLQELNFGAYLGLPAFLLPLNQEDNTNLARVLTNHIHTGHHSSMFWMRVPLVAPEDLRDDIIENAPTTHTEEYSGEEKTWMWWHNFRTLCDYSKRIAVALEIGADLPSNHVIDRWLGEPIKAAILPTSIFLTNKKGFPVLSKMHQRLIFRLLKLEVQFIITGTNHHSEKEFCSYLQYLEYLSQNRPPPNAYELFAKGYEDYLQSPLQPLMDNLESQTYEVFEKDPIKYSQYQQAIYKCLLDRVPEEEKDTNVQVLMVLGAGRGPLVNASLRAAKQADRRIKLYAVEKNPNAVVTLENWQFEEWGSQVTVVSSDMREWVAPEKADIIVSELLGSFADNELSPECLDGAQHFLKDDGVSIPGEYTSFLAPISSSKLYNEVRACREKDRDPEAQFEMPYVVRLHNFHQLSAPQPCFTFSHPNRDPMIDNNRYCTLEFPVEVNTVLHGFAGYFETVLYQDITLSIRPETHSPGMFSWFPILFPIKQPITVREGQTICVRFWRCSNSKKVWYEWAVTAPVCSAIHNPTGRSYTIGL
PRMT5, sequence (Q9BQA1 whole entry partner, species assumed): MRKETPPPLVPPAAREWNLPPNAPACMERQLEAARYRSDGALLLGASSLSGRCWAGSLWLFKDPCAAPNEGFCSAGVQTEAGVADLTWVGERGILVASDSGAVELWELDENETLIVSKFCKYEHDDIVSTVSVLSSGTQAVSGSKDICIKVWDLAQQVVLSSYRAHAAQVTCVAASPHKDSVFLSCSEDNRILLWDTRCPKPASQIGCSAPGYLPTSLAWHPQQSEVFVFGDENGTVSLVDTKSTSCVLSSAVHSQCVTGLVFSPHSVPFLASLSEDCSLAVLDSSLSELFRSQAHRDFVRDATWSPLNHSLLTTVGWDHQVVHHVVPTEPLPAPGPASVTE

[5] = lower concentrations tested (from 1 μM)

SMYD2, sequence (Q9NRG4 whole entry, species assumed): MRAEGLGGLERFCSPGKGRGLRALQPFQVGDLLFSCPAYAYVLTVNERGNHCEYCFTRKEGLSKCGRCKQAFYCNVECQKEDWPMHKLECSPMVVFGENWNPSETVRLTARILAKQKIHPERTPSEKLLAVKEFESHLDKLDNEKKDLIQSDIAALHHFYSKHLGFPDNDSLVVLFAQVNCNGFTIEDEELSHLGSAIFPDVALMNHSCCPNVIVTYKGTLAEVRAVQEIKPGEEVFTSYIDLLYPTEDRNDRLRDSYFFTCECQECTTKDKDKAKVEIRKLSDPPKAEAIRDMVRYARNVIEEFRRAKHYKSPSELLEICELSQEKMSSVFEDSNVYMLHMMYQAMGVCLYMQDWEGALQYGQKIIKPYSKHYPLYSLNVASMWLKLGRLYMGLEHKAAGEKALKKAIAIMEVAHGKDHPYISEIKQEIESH

With N#Cc1ccc(/C=C/CN(CC[C@H](N)C(=O)O)C[C@H]2O[C@@H](n3cnc4c(N)ncnc43)[C@H](O)[C@@H]2O)cc1 [Compound 17u, (S)-2-Amino-4-((((2R,3S,4R,5R)-5-(6-amino-9H-purin-9-yl)-3,4-dihydroxytetrahydrofuran-2-yl)methyl)((E)-3-(4-cyanophenyl)allyl)amino)butanoic Acid] the “cell permeability (in words)” value [1] was “very poor cell permeability; also recorded: poor cell permeability”, the activity at 1 µM (SMYD2; read-out: SMYD2 Average Activity (%) 1µM) was 39% and the activity at 10 µM (SMYD2; read-out: SMYD2 Average Activity (%) 10µM) was 19%. For the same compound, the “higher potency toward NNMT (than SMYD-2)” value (SMYD2; selectivity NNMT over SMYD-2) was greater than 100 fold, the “PNMT inhibition at the concentrations tested” value (Human recombinant PNMT; 1 and 10 μM) was “less than 50%” and the “inhibitory activity against PNMT lower than against NNMT” value (Human recombinant PNMT; selectivity NNMT over PNMT) was “more than 3000 fold”. For the same compound, the “effect on cell viability, HSC-2” value ([2]; 100 μM, MTT, 24, 48 and 72 h) was “clear inhibition of the cell viability; also recorded: significant decrease in cell viability”, the “effect on cell viability, HSC-2” value [2, 5] was “absent” and the “DOT1L activity of the compound (in words)” value (DOT1L; 1 μM) was “no appreciable activity”. For the same compound, the inhibition at 10 µM (DOT1L; read-out: DOT1L inhibition) was greater than 50%, the “effect on cell viability, T24” value ([3]; 100 μM, MTT, 24, 48 and 72 h) was “clear inhibition of the cell viability; also recorded: significant decrease in cell viability” and the “effect on cell viability, T24” value [3, 5] was “absent”. For the same compound, the “PRMT4/CARM1 inhibition at the concentrations tested” value (PRMT4/CARM1) was “no inhibition was observed”, the “effect on cell viability, A549” value ([4]; 100 μM, MTT, 24, 48 and 72 h) was “clear inhibition of the cell viability; also recorded: significant decrease in cell viability” and the “effect on cell viability, A549” value [4, 5] was “absent”. For the same compound, the “PRMT5 activity of the compound (in words)” value (PRMT5; 1 μM) was “no appreciable activity” and the inhibition at 10 µM (PRMT5; read-out: PRMT5 inhibition) was greater than 50%.
